The SangsterLogP compilation

Test: method code SF-AS, from PMID: 4559156
Conditions: pH 7.4

Going from O=[N+]([O-])c1cnc(/N=C2/SCCN2CCO)s1 to CC(=O)OCCN1CCS/C1=N/c1ncc([N+](=O)[O-])s1, the logD rises from 1.28 to 1.88.

Going from O=[N+]([O-])c1cnc(N=C2NCCO2)s1 to CCN1CCNC1=Nc1ncc([N+](=O)[O-])s1, the logD rises from 0.57 to 2.28.

CC1CN(C)C(=Nc2ncc([N+](=O)[O-])s2)N1 (stereo not given) and CC1CNC(=Nc2ncc([N+](=O)[O-])s2)N1C (stereo not given) are within 0.2 log units of each other in logD: 1.95 for the first, 2.02 for the second.

CC1N=C(Nc2ncc([N+](=O)[O-])s2)OC1(C)C (stereo not given) and CN1CCN=C1Nc1ncc([N+](=O)[O-])s1 are within 0.2 log units of each other in logD: 1.88 for the first, 1.8 for the second.

Compared with O=[N+]([O-])c1cnc(N=C2NCC(O)CN2)s1 (stereo not given), CN1CC(O)CN(C)C1=Nc1ncc([N+](=O)[O-])s1 (stereo not given) is lower in logD: 0.74 for the first, 0.16 for the second.

Going from O=[N+]([O-])c1cnc(/N=C2/OCCN2CCO)s1 to O=[N+]([O-])c1cnc(N=C2NCCN2CCO)s1, the logD rises from 0.43 to 1.23.

Going from CC1(C)NC(=Nc2ncc([N+](=O)[O-])s2)OC1(C)C to CN1CCN(C)C1=Nc1ncc([N+](=O)[O-])s1, the logD falls from 2.4 to 0.92.

Molecule O=[N+]([O-])c1cnc(NC2=NCCN2)s1 has a logD of 1.38.
